According to patent US8790678B2, “Biomaterials having nanoscale layers and coatings” (Washington University, priority 2006, dated 2014):
pKd: −log10 of the molar value. Values joined by “and” are separate entries in the source; they are usually repeats but may differ in a detail not shown here. Identical values can stand only once.

Key:
HUVEC [1] = test: Scrape wound migration assay in platelet poor plasma or low serum medium; format: cell-based, human; conditions: for number of cells in the scrape wound versus plasma alone: no flow
Experimental: The plasma was passed through a 0.22 μm PVDF syringe filter. Plasma was aliquoted and stored at −20° C. VEGF concentration was measured with a sandwich ELISA kit (Quantikine Human VEGF kit, R&D Systems, Minneapolis, Minn.). The concentration of VEGF was measured in plasma samples from three different donors.
After rinsing with D-PBS, LSM or plasma containing the appropriate stimulants were added to the cells. […] Cells were manually counted using ImagePro Express software (Media Cybernetics, Silver Spring, Md.).
A 2.54 cm diameter Teflon disk was mounted onto the spindle of each motor so that the bottom of the disk was 0.5 cm above the cell monolayer. A total volume of 6 mL of medium was added per well. The motors were driven using a 1.5 V power source resulting in a rotation rate of 150±5 rad/s. […] Cell densities were counted at four locations, each between 0.8 and 1.2 cm away from the center of the well.

S1P1 mRNA = test: Quantitative real time RT-PCR of S1P1 mRNA; format: cell-based, human; conditions: 10 ng/mL VEGF; HUVEC cultured in plasma; 24 h
Excerpt: Quantitative Real Time Reverse Transcription PCR-In experiments with fluid flow, cell lysates were harvested only in the region of relevant shear stress (0.8-1.2 cm from the center of the well). For conditions without fluid flow, cell lysates were collected from the entire well. Total cell RNA was isolated using an RNeasy kit (Qiagen). Amplification of an 81-bp fragment of S1P1 using primers (5'-[…] NO:7] and 5'-[…] Inc, Coralville, Iowa) and probe (S1P1 Probe: [NT] ID NO:9], IDT Inc) was performed using the Quantitect qRT-PCR kit (Qiagen). The amount of S1P1 or β-Actin RNA was quantified by comparing data to a standard curve generated using the Taqman human endogenous β-actin control kit (Applied Biosystems). The β-actin control kit contains 333 copies of β-actin DNA per ng of total RNA. Knockdown of S1P1 with siRNA-Passage 3 HUVEC at 30-50% confluence were transfected with 100 nM siRNA targeting S1P1 (Silencer validated siRNA against S1P1, Ambion, Austin, Tex.) in antibiotic-free growth medium using Lipofectamine-2000 (Invitrogen). […] At 48 h, cells were incubated with LSM for 12 h. A negative control (Ambion, Silencer Negative Control #2) was used to test for non-specific effects on gene expression or cell survival. Quantitative real-time RT-PCR was used to determine the extent of S1P1 receptor mRNA knockdown 48 h after transfection.

[2] = tested on: chorioallantoic membrane (CAM); test: Chick chorioallantoic membrane (CAM) angiogenesis assay; format: in vivo, chicken; conditions: 50 ng spotted on Thermanox coverslip, two days
Experimental: Embryonated chicken eggs were incubated blunt-end up in a 37° C. incubator. At embryonal day 6, the top of the egg was cracked and removed using tweezers to create a 1.5 cm diameter opening. The inner shell membrane was removed, exposing the CAM. A 20 μL PEG hydrogel was then placed onto the CAM. As controls, 50 ng bFGF or 50 ng S1P were spotted onto small pieces of Thermanox coverslips (Nunc), air dried and placed onto the CAM. The eggs were sealed with parafilm and returned to the incubator. After two days of incubation, the eggs were reopened and the degree of angiogenesis was visually assessed.

HUVEC [3] = test: Time-lapse microscopy of endothelial cell migration on PEG-OVS/albumin/RGD hydrogels; format: cell-based, human
Experimental: Time-lapse microscopy was used to quantify endothelial cell migration speeds on PEGOVS/albumin hydrogels containing RGD peptide and preloaded with S1P. RGD peptide was added to the PEG hydrogels to promote endothelial cell adhesion and spreading on the materials. PEG-OVS (3.4 mg in 20 μL) was reacted for 30 min with acetyl-GCGYGRGDSPG-NH2 peptide [SEQ ID NO. 5], to attach the peptide to 1/20 of the vinyl sulfone groups (2.78 mM RGD peptide in the final hydrogel). The PEG hydrogels were crosslinked by reacting PEG-OVS with albumin (5.2 mg in 30 μL) premixed with S1P (5 nmol) to give a final concentration of 100 μM S1P within the crosslinked hydrogel. The resulting solution (50 μL) was pipetted into a 24-well plate and incubated at 37° C. for 24 h to allow crosslinking. HUVEC from passage 5-7 were seeded onto the gels at a concentration of 1000 cells/cm^2. After allowing the cells to spread for 6 h in complete growth medium, HEPES-buffered low serum medium (MCDB 131 with 0.1% FBS, 1% ABAM, […] HEPES, pH 7.4) containing 0.4% FAF-BSA was added to the cells. The cells were tracked using time-lapse microscopy for 12 h, recording images every two minutes. Individual cell migration speeds were analyzed manually using ImageJ to trace the path of each cell over time. […]

[4] = tested on: Human aortic endothelial cells; test: Single cell tracking on RGD/PEG-OVS/albumin hydrogels under fluid shear stress; format: cell-based; conditions: for endothelial cell migration speed: 100 nM S1P
Experimental: Human aortic endothelial cells seeded onto RGD/PEG-OVS/albumin hydrogels at 1000-2000 cells/cm^2 were tracked under 20 dynes/cm^2 fluid shear stress in HEPES-buffered low serum medium (HEPES-LSM; MCDB 131 with 0.1% FBS, 1% ABAM, […] HEPES, pH 7.4) containing 0.4% FAF-BSA for 12 h.
Time lapse microscopy images were obtained every 2 min for 12 h of endothelial cell migration on the surface of RGD containing PEG hydrogels. The percent of cells remaining on the gels during the course of the experiment was recorded for each RGD concentration. The projected cell areas of all cells were determined by manually outlining the cells after 3 h under 20 dyne/cm^2 shear stress. Single endothelial cells were manually tracked for 12 h to obtain XY-coordinate data for the center of each cell. Coordinate data from every six minutes (Δt=6 min) for all cells in each experiment were saved as variables for analysis in MATLAB (The MathWorks, Natick, Mass.). At each time point i, ti=iΔt, the mean squared displacement was calculated using the overlapping interval method. The speed of each individual was calculated by dividing the root mean-square displacement for a single time interval by the tracking interval (6 min). Each cell's persistence time was determined by fitting the persistent random walk model given by Equation 1: <d^2(t)>=2S^2P[t−P(1−e^−t/P)] [1] using the calculated speed by nonlinear least squares regression analysis as previously described (Dunn 1983; Othmer, Dunbar and Alt 1988; Harms et al. 2005). Speed simply represents the total path length of a cell over time. Persistence time represents the time period between changes in the direction of movement of more than 60°. Path length is calculated as the product of speed and persistence time. Cell dispersion is the product of speed squared and persistence time. Cell areas were obtained by manually tracing cells. All data was analyzed by ANOVA Scheffe post hoc. Endothelial Response to Linear RGD Concentration—Cell Attachment Strength

HAEC = test: Individual cell migration of HAEC in plasma; format: cell-based, human
Experimental: Individual Cell Migration of HAEC—Passage 6 HAEC were subcultured and incubated in growth medium for 3 days and then were serum-starved for 12 h. HAEC cell densities were less than 100 cell/mm^2 so that cell-cell contacts were unlikely during the duration of the experiment. Any cell that contacted another cell was excluded from data analysis. Plasma was buffered with 20 mM HEPES, pH 7.4, and added to the well. Time-lapse microscopy was used to track the cells every 4 min for 12 h with a 10× objective. The migration speed of individual cells was analyzed using ImageJ software (NIH).

S1P1 = S1P1 (Homo sapiens, UniProt P21453); conditions: Lee et al., Science (1998); read-out: KD for S1P/S1P1 binding; cited from earlier work
plasma lipoproteins = conditions: in blood; cited from earlier work
[5] = S1P 100 nM or VEGF 10 ng/mL added to plasma
[6] = S1P at 0.69 mM cyclic RGD vs 0.52 and 1.38 mM cyclic RGD without S1P
[7] = addition of 100 nM S1P, linear RGD

Sequence of S1P1 (P21453 whole entry, species assumed): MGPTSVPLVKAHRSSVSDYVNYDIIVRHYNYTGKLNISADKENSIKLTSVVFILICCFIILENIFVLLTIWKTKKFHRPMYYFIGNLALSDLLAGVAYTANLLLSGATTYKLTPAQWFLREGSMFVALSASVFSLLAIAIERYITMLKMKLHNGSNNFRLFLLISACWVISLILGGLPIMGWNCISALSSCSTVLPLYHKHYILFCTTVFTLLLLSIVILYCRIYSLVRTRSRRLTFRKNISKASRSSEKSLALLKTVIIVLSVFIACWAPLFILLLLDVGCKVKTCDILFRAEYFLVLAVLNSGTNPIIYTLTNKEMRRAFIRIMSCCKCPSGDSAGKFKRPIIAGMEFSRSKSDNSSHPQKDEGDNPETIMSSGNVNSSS

## VEGF
HUVEC [1]; [5]
  number of cells in the scrape wound versus plasma alone: no differences
S1P1 mRNA
  S1P1 mRNA concentration versus plasma alone: statistically significant increase

## CCCCCCCCCCCCC/C=C/[C@@H](O)[C@@H](N)COP(=O)(O)O [S1P, Sphingosine 1-phosphate]
[2]
  angiogenic response: strong angiogenic responses
HUVEC [3]; S1P delivered from preloaded PEG/albumin/RGD hydrogel (100 μM S1P in gel), without S1P 19.2±10.1
  mean migration speed of HUVEC: 43.8±15.7 μm/h
HUVEC [3]; culture medium containing 100 nM S1P, on PEG/albumin/RGD hydrogel
  mean migration speed of HUVEC: 30.2±11.8 μm/h
[4]; 100 nM S1P compared to no S1P, cyclic RGD
  persistence time: not significantly changed
[4]; cyclic RGD hydrogels, particularly higher concentrations
  endothelial cell migration speed: significant increase in endothelial cell migration speed
[4]; highest linear RGD concentrations
  endothelial cell migration speed: more than doubled
[4]; S1P addition, cyclic RGD, after 3 h of shear stress
  projected cell area: No clear effect
[4]; [6]
  cell dispersion: statistically greater
  path length: statistically greater
[4]; [7]
  cell dispersion: not significant
  path length: not significant
  persistence time: not clearly affected
HUVEC [1]; 0, 200, 500, and 1000 nM exogenous S1P at each time point
  cell densities outside the scrape wound area between S1P levels: no significant differences
HUVEC [1]; 100 nM S1P in LSM, 24 h
  number of endothelial cells in a scrape wound versus LSM alone: increased the number of endothelial cells
HUVEC [1]; 100 nM S1P in plasma, fluid flow
  number of cells in the scrape wound: did not significantly increase
HUVEC [1]; 200 nM and 500 nM exogenous S1P, plasma, 24 h
  number of cells in the scrape wound versus plasma alone: statistically different from plasma alone
HUVEC [1]; 200 nM exogenous S1P, fluid flow, 48 h
  migration into the wound area versus plasma alone: significantly different from plasma alone
HUVEC [1]; 200 nM exogenous S1P, plasma, 48 h
  number of cells in the scrape wound versus plasma alone: significantly higher than plasma alone
HUVEC [1]; 1000 nM exogenous S1P in static culture
  cell density outside the scrape wound at 48 h versus 0 and 24 h: significantly lower cell density
HUVEC [1]; 200, 500, or 1000 nM S1P in plasma, fluid flow, 24 h
  number of cells in the wound area versus plasma alone: significant increases
HUVEC [1]; [5]
  number of cells in the scrape wound versus plasma alone: no differences
HUVEC [1]; plasma, without fluid flow, 100, 200, 500, 1000 nM tested
  exogenous S1P concentration with the highest number of cells within the scrape wound: 200 nM
HAEC; 100 nM S1P added to static plasma
  mean cell speed versus plasma alone: no difference
HAEC; 500 and 1000 nM exogenous S1P
  mean cell speed versus plasma alone: did not lead to a significant increase
HAEC; S1P in plasma increased by 200 nM, p=0.023
  mean cell speed versus plasma alone: significantly increased
S1P1
  pKd: ~8.10 and 8.10
Plasma lipoproteins
  circulating S1P bound by HDL: about 55%
  circulating S1P bound by other lipoproteins: about 10%
